Assay results reported in patent US20100261711A1, “SELECTIVE ANTICONVULSANT AGENTS AND THEIR USES” (WiSys Technology Foundation, priority 2009, published 2010).
Marks after values point to notes of the source that are not given here.

What was measured:
[1] = system: minimal muscular or neurological impairment; assay: Toxicity (TOX), rotorod procedure, mice; assay type: in vivo
[2] = system: minimal motor deficit (ataxia, abnormal gait); assay: Toxicity (TOX), minimal motor deficit, rats; assay type: in vivo; conditions: for TOX (Rotorod Test), animals toxic/tested: Rat IP, 100 mg/kg
6 Hz psychomotor seizure = assay: Minimal clonic seizure (6 Hz) test; assay type: in vivo; conditions: Mice IP; for 6 Hz, animals protected/tested: 100 m/k, 44 mA
How it was run: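 Mice dosed ip with test compound before 6 Hz corneal-type electrical stimulation lasting 3 s. Protection scored as absence of minimal clonic phase and stereotyped automatistic behaviour seen in untreated animals.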

MES-induced seizures [3] = assay: Maximal electroshock test (MES), rats; assay type: in vivo; conditions: for MES, animals protected/tested: 30 mg/kg
kindled motor seizure = assay: Hippocampus kindling screen; assay type: in vivo; conditions: Rats IP, 30 mg/kg after 1.0 h
Description: The hippocampus kindling screen is a useful adjunct to the traditional MES and scMet tests for identification of a substance potential utility for treating complex partial seizures. […] No toxic effects were observed as indicated by the lack of motor impairment on the rats tested.

[4] = target: T1, GABAA/α2 (α2β3γ2 GABAA receptors) (Homo sapiens, UniProt P18507+P47869); assay: Competitive binding assay, [3H]flunitrazepam; conditions: Binding Affinity at GABAA/α2, αxβ3γ2, [3H]flunitrazepam competition
T1 construct: expressed in transfected cells
How it was run: (§1)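 Bound ligand was collected on 0.3% polyethyleneimine-pretreated GF/C filters with three ice-cold washes and quantified by liquid scintillation counting; membrane protein was determined against a BSA standard.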

[5] = target: T2, GABAA/α1 (α1β3γ2 GABAA receptors) (Homo sapiens, UniProt P14867+P18507); assay: Competitive binding assay, [3H]flunitrazepam; conditions: Binding Affinity at GABAA/α1, αxβ3γ2, [3H]flunitrazepam competition
T2 construct: expressed in transfected cells
How it was run: as §1

[6] = system: Metrazol-induced clonic seizures; assay: Subcutaneous Metrazol test (scMet), mice; assay type: in vivo
MES-induced seizures [7] = assay: Maximal electroshock test (MES), mice; assay type: in vivo
[8] = Mice, 50 mg/kg PO (Mice IP), 0.5 hr
[9] = Mice, 50 mg/kg PO (Mice IP), 4.0 hr

C#Cc1ccc2c(c1)C(c1ccccc1F)=NCc1c(C(=O)OCC)ncn1-2 [JY-XHe-053 (15), Ethyl-8-acetyleno-6-(2′-fluorophenyl)-4H-benzo[f]imidazo[1,5-a][1,4]diazepine-3-carboxylate]
TOX (Rotorod Test), animals toxic/tested ([1]; Mice IP, 100 mg/kg, 0.5 hr): 6/8
TOX (Rotorod Test), animals toxic/tested ([1]; Mice IP, 100 mg/kg, 4.0 hr): 0/4
TD50 TOX ([1]; Mice IP, rotorod): > 400 mg/kg
TOX (Rotorod Test), animals toxic/tested [1, 8]: 0/4
TOX (Rotorod Test), animals toxic/tested [1, 9]: 0/4
TOX (Rotorod Test), animals toxic/tested ([2]; 0.5 hr): 0/4
TOX (Rotorod Test), animals toxic/tested ([2]; 4.0 hr): 0/4
Tox, animals toxic/tested ([2]; Rat PO, 40 mg/kg, 4.0 h): 0/4^e
Tox, animals toxic/tested ([2]; Rat PO, 40 mg/kg, 6.0 h): 0/4^e
Tox, animals toxic/tested ([2]; Rat PO, 50 mg/kg, 0.5 h): 0/4
Tox, animals toxic/tested ([2]; Rat PO, 50 mg/kg, 1.0 h): 0/4
Tox, animals toxic/tested ([2]; Rat PO, 50 mg/kg, 2.0 h): 0/4
Tox, animals toxic/tested ([2]; Rat PO, 50 mg/kg, 4.0 h): 0/4
Tox, animals toxic/tested ([2]; Rat PO, 50 mg/kg, […]): 0/4
TD50 TOX ([2]; Rat PO, abnormal gait): >500 mg/kg
motor impairment / sedative or locomotor effects ([2]; rats, oral administration, up to 500 mg/kg): No motor impairment
6 Hz, animals protected/tested (6 Hz psychomotor seizure; 0.5 hr): 4/4
6 Hz, animals protected/tested (6 Hz psychomotor seizure; 1.0 hr): 2/4
6 Hz, animals protected/tested (6 Hz psychomotor seizure; 2.0 hr): 2/4
6 Hz, animals protected/tested (6 Hz psychomotor seizure; 4 hr): 0/4
6 Hz, animals protected/tested (6 Hz psychomotor seizure; […]): 2/4
ED50 (6 Hz psychomotor seizure; Mus musculus, ip, 32 mA, read-out: ED50 32 mA (6 Hz test)): 39.2 mg/kg
ED50 (MES-induced seizures [3]; Rat IP): > 30 mg/kg
ED50 (MES-induced seizures [3]; Rat PO): > 250 mg/kg
MES, animals protected/tested (MES-induced seizures [3]; Rat PO, 0.5 h): 0/4
MES, animals protected/tested (MES-induced seizures [3]; Rat PO, 1.0 h): 0/4
MES, animals protected/tested (MES-induced seizures [3]; Rat PO, 2.0 h): 0/4
MES, animals protected/tested (MES-induced seizures [3]; Rat PO, 4.0 h): 1/4
MES, animals protected/tested (MES-induced seizures [3]; Rat PO, 6.0 h): 0/4
Tox, animals toxic/tested (kindled motor seizure): 0/2^b
Afterdischarge Duration, Drug (Low-High) (kindled motor seizure; pre-drug 30-41): 38- s
Ki [4]: 12.3 nM
Ki [5]: 22 nM
scMet, animals protected/tested ([6]; Mice IP, 100 mg/kg, 0.5 hr): 5/5
scMet, animals protected/tested ([6]; Mice IP, 100 mg/kg, 4.0 hr): 0/1
scMet, animals protected/tested [6, 8]: 3/4
scMet, animals protected/tested [6, 9]: 4/4
ED50 ([6]; Mus musculus, Mice IP): 8.87 mg/kg
MES, animals protected/tested (MES-induced seizures [7]; Mice IP, 100 mg/kg, 0.5 hr): 0/3
MES, animals protected/tested (MES-induced seizures [7]; Mice IP, 100 mg/kg, 4.0 hr): 0/3
MES, animals protected/tested (MES-induced seizures [7]; [8]): 1/4
MES, animals protected/tested (MES-induced seizures [7]; [9]): 0/4
ED50 (MES-induced seizures [7]; Mus musculus, Mice IP): > 200 mg/kg
